Laboratory results reported in ChEMBL document CHEMBL2029223, “Identification of a phenylacylsulfonamide series of dual Bcl-2/Bcl-xL antagonists” (Bioorg Med Chem Lett, 2012).
Activity calls are given as the source filed them. No cut-off for these calls is given here.

Assays:
[1] = Antiproliferative activity against human SU-DHL4 cells after 72 hrs by Cell-Titer Glo assay in presence of 10% FBS; format: functional, cell-based, SUD4; conditions: SU-DHL-4, 72 h
[2] = biological target: Apoptosis regulator Bcl-2 (Homo sapiens, UniProt P10415); assay: Inhibition in GST-tagged Bcl2 using [FAM]-IWIAQELRRIGDEFNAYY-NH2 as substrate after 60 mins by fluorescence polarization assay
Chain of Apoptosis regulator Bcl-2 (P10415 whole entry): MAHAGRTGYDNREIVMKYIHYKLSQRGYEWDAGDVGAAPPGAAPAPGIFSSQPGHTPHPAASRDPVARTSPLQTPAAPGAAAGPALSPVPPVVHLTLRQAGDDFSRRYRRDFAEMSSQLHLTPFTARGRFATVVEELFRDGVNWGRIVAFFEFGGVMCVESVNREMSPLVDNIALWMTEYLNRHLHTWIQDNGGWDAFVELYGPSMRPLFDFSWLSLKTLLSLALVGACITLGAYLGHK

[3] = tested on: MV4-11; assay: Antiproliferative activity against human MV411 cells after 72 hrs by Cell-Titer Glo assay in presence of 2% FBS; format: functional, cell-based; conditions: MV4-11, 72 h
[4] = Antiproliferative activity against human SU-DHL4 cells after 72 hrs by Cell-Titer Glo assay in presence of 2% FBS; format: functional, cell-based, SUD4; conditions: SU-DHL-4, 72 h
[5] = biological target: Bcl-2-like protein 1 (Homo sapiens, UniProt Q07817); assay: Inhibition of Bcl-XL using fluoresceinated 18-mer Bim as substrate after 60 mins by FRET analysis
Chain of Bcl-2-like protein 1 (Q07817 whole entry): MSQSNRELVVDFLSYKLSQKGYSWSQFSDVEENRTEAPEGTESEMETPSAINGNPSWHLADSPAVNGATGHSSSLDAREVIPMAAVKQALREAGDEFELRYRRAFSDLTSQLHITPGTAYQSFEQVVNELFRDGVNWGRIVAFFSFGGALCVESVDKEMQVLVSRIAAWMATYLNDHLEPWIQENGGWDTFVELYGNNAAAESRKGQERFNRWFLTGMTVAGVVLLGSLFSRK

[6] = tested on: MV4-11; assay: Antiproliferative activity against human MV411 cells after 72 hrs by Cell-Titer Glo assay in presence of 10% FBS; format: functional, cell-based; conditions: MV4-11, 72 h
[7] = tested on: SUD4; assay: Induction of apoptosis in human SU-DHL4 cells assessed as BAK oligomerization at 0.1 to 10 uM after 24 hrs by Western blot analysis; format: functional, cell-based
[8] = tested on: SUD4; assay: Induction of apoptosis in human SU-DHL4 cells assessed as cytochrome c release at 0.1 to 10 uM after 24 hrs by Western blot analysis; format: functional, cell-based
[9] = tested on: SUD4; assay: Induction of apoptosis in human SU-DHL4 cells assessed as cytochrome c release at 10 uM after 24 hrs by Western blot analysis; format: functional, cell-based
[10] = tested on: SUD4; assay: Induction of apoptosis in human SU-DHL4 cells assessed as BAK oligomerization at 10 uM after 24 hrs by Western blot analysis; format: functional, cell-based

## CCCCN(CCCC)C(=O)c1nn(-c2ccc(C(=O)NS(=O)(=O)c3ccc4ccccc4c3)cc2C(=O)N2Cc3ccccc3C[C@H]2CN2CCN(C)CC2)c(C)c1Cl
[1]
  IC50: > 10000 nM
[2]
  IC50: 140 nM
[3]
  IC50: 4800 nM
[4]
  IC50: 9700 nM
[5]
  IC50: 22 nM
[6]
  IC50: > 10000 nM

## CCCCN(CCCC)C(=O)c1nn(-c2ccc(C(=O)NS(=O)(=O)c3ccc4ccccc4c3)cc2C(=O)N2Cc3ccccc3C[C@H]2CN2CCCC2)c(C)c1Cl
[1]
  IC50: > 10000 nM
[2]
  IC50: 47 nM
[3]
  IC50: 1500 nM
[4]
  IC50: 1800 nM
[5]
  IC50: 19 nM
[6]
  IC50: > 10000 nM

## CCCCN(CCCC)C(=O)c1nn(-c2ccc(C(=O)NS(=O)(=O)c3ccc4ccccc4c3)cc2C(=O)N2Cc3ccccc3C[C@H]2CO)c(C)c1Cl
[1]
  IC50: > 10000 nM
[2]
  IC50: 35 nM
[7]
  Activity: Active
[8]
  Activity: Active
[3]
  IC50: > 10000 nM
[4]
  IC50: > 10000 nM
[6]
  IC50: > 10000 nM

## CCCCN(CCCC)C(=O)c1nn(-c2ccc(C(=O)NS(=O)(=O)c3ccc4ccccc4c3)cc2C(=O)N2Cc3ccccc3C[C@H]2COCCN(C)C)c(C)c1Cl
[2]
  IC50: 37 nM
[5]
  IC50: 47 nM

## CCCCN(CCCC)C(=O)c1nn(-c2ccc(C(=O)NS(=O)(=O)c3ccc4ccccc4c3)cc2C(=O)N2CNc3ccccc3C2)c(C)c1Cl
[2]
  IC50: 26 nM
[5]
  IC50: 26 nM

## CCCCN(CCCC)C(=O)c1nn(-c2ccc(C(=O)NS(=O)(=O)c3ccc4ccc(OCCN5CCOCC5)cc4c3)cc2C(=O)N2CCc3ccccc3C2)c(C)c1Cl
[2]
  IC50: 400 nM
[5]
  IC50: 54 nM

## CCCCN(CCCC)C(=O)c1nn(-c2ccc(C(=O)NS(=O)(=O)c3ccc4ccccc4c3)cc2C(=O)N2COc3ccccc3C2)c(C)c1Cl
[5]
  IC50: 62 nM

## CCCCN(CCCC)C(=O)c1nn(-c2ccc(C(=O)NS(=O)(=O)c3ccc4cccc(OCCN5CCOCC5)c4c3)cc2C(=O)N2CCc3ccccc3C2)c(C)c1Cl
[5]
  IC50: 41 nM

## CCCCN(CCCC)C(=O)c1nn(-c2ccc(C(=O)NS(=O)(=O)c3ccc4ccccc4c3)cc2C(=O)N2Cc3ccccc3C[C@H]2CN)c(C)c1Cl
[1]
  IC50: > 10000 nM
[2]
  IC50: 9 nM
[7]
  Activity: Active
[8]
  Activity: Active
[3]
  IC50: 8500 nM
[4]
  IC50: > 10000 nM
[6]
  IC50: > 10000 nM

## CCCCN(CCCC)C(=O)c1nn(-c2ccc(C(=O)NS(=O)(=O)c3ccc4ccccc4c3)cc2C(=O)N2CCc3ccccc3C2C)c(C)c1Cl (stereo not given)
[2]
  IC50: 710 nM
[5]
  IC50: 590 nM

## CCCCN(CCCC)C(=O)c1nn(-c2ccc(C(=O)NS(=O)(=O)c3ccc4c(c3)CCN4C(=O)c3ccc(Cl)c(Cl)c3)cc2C(=O)N2CCc3ccccc3C2)c(C)c1Cl
[2]
  IC50: 280 nM
[5]
  IC50: 550 nM

## O=C(c1ccc(CN(Cc2ccc(F)cc2)S(=O)(=O)c2cc(Cl)cc(Cl)c2O)cc1)N(Cc1ccc(F)cc1)Cc1cc(Cl)cc(Cl)c1
[2]
  IC50: 35 nM
[5]
  IC50: > 30000 nM

## CCCCN(CCCC)C(=O)c1nn(-c2ccc(C(=O)NS(=O)(=O)c3ccc4ccccc4c3)cc2C(=O)N2Cc3ccccc3C[C@H]2COCCCOC)c(C)c1Cl
[1]
  IC50: > 10000 nM
[2]
  IC50: 22 nM
[3]
  IC50: 2800 nM
[4]
  IC50: 5400 nM
[5]
  IC50: 29 nM
[6]
  IC50: > 10000 nM

## CC1(C)CCC(c2ccc(Cl)cc2)=C(CN2CCN(c3ccc(C(=O)NS(=O)(=O)c4ccc(N[C@H](CCN5CCOCC5)CSc5ccccc5)c(S(=O)(=O)C(F)(F)F)c4)cc3)CC2)C1
[7]
  Activity: Active
[8]
  Activity: Active

## CCCCN(CCCC)C(=O)c1nn(-c2ccc(C(=O)NS(=O)(=O)c3ccc4c(c3)CCN4CC)cc2C(=O)N2CCc3ccccc3C2)c(C)c1Cl
[2]
  IC50: 78 nM
[5]
  IC50: 17 nM

## CCCCN(CCCC)C(=O)c1nn(-c2ccc(C(=O)NS(=O)(=O)c3ccc4ccc(I)cc4c3)cc2C(=O)N2CCc3ccccc3C2)c(C)c1Cl
[5]
  IC50: 47 nM

## CCCCN(CCCC)C(=O)c1nn(-c2ccc(C(=O)NS(=O)(=O)c3ccc4ccccc4c3)cc2C(=O)N2Cc3ccccc3C[C@H]2CN2CCOCC2)c(C)c1Cl
[1]
  IC50: > 10000 nM
[2]
  IC50: 14 nM
[3]
  IC50: 3000 nM
[4]
  IC50: 6300 nM
[5]
  IC50: 16 nM
[6]
  IC50: > 10000 nM

## CCCCN(CCCC)C(=O)c1nn(-c2ccc(NS(=O)(=O)c3cc(Cl)cc(Cl)c3O)cc2C(=O)N2CCc3ccccc3C2)c(C)c1Cl
[2]
  IC50: 910 nM
[5]
  IC50: 4300 nM

## CCCCN(CCCC)C(=O)c1nn(-c2ccc(C(=O)NS(=O)(=O)c3ccc4cccc(S(=O)(=O)CC)c4c3)cc2C(=O)N2CCc3ccccc3C2)c(C)c1Cl
[2]
  IC50: 180 nM
[5]
  IC50: 150 nM

## CCCCN(CCCC)C(=O)c1nn(-c2ccc(C(=O)NS(=O)(=O)c3ccc4ccccc4c3)cc2C(=O)N2CCc3ccccc3C2)c(C)c1Cl
[2]
  IC50: 32 nM
[5]
  IC50: 24 nM

## CCCCN(CCCC)C(=O)c1nn(-c2ccc(C(=O)NS(=O)(=O)c3ccc4c(c3)CCN4Cc3ccc(Cl)c(Cl)c3)cc2C(=O)N2CCc3ccccc3C2)c(C)c1Cl
[1]
  IC50: > 10000 nM
[2]
  IC50: 16 nM
[9]
  Activity: Active
[3]
  IC50: > 10000 nM
[10]
  Activity: Active
[4]
  IC50: > 10000 nM
[5]
  IC50: 44 nM
[6]
  IC50: > 10000 nM

## CCCCN(CCCC)C(=O)c1nn(-c2ccc(C(=O)NS(=O)(=O)c3ccc4c(c3)CCN4)cc2C(=O)N2CCc3ccccc3C2)c(C)c1Cl
[2]
  IC50: 32 nM
[5]
  IC50: 23 nM

## CCCCN(CCCC)C(=O)c1nn(-c2ccc(C(=O)NS(=O)(=O)c3ccc4cccc(OCc5ccc(C(=O)O)cc5)c4c3)cc2C(=O)N2CCc3ccccc3C2)c(C)c1Cl
[2]
  IC50: 15 nM
[5]
  IC50: 17 nM
